{"source": "patent US20040132740A1", "about": "“Novel antibiotics” (priority 2001, published 2004)", "key": {"[1]": {"test_system": "gram-positive and gram-negative organisms", "experiment": "Antibacterial effect compared with ciprofloxacin hydrochloride under the same experimental conditions", "assay_type": "cell-based, E. coli and St. aureus", "details": "hydrochloride salt", "procedure": "(§1) An aqueous solution of the salts of the compounds reported in this invention namely compound (A) and compound (B) were tested in vitro against E. coli and St. aureus according to an established clinical procedure (Mackie and McCartney: Practical Medical Microbiology, Churchill livingstone, 1996, 14th edition, p159-163)."}, "LD50 on mice": {"experiment": "LD50 on mice", "details": "mouse, in vivo"}, "E. coli": {"test_system": "E. coli", "experiment": "Minimum inhibitory concentration in vitro against E. coli", "assay_type": "cell-based", "details": "Escherichia coli, aqueous solution of hydrochloride salts", "procedure": "as §1"}, "Staphylococcus aureus": {"test_system": "Staphylococcus aureus", "experiment": "MIC / effective maintenance dose to control bacterial re-growth, clinically isolated Staphylococcus aureus", "assay_type": "cell-based", "details": "clinically isolated microorganism, read-out: effective maintenance dose necessary to control bacterial re-growth (MIC), Staphylococcus aureus", "procedure": "(§2) The minimum inhibitory concentration (MIC) of compound (A) and ciprofloxacin were also studied using clinically isolated microorganism staphylococcus aureus and pseudomotias aeruginose.\n(§3) The experimental work was carried out according to an established clinical procedure […] (Mackie and McCartney, ibid)."}, "Pseudomones aeruginose": {"test_system": "Pseudomones aeruginose", "experiment": "MIC / effective maintenance dose to control bacterial re-growth, clinically isolated Pseudomones aeruginose", "assay_type": "cell-based", "details": "clinically isolated microorganism", "procedure": "as §2, §3"}, "St. aureus": {"test_system": "St. aureus", "experiment": "Minimum inhibitory concentration in vitro against St. aureus", "assay_type": "cell-based", "details": "Staphylococcus aureus, aqueous solution of hydrochloride salts", "procedure": "as §1"}, "bacteria": {"test_system": "bacteria", "experiment": "Further incubation of the positive samples for up to 16 hours (bacterial re-growth)", "assay_type": "cell-based", "procedure": "as §3"}}, "note": "Where a name gives a salt, the structure may show the parent alone."}
{"smiles": "CN1CCN(c2cc3c(cc2F)c(=O)ccn3C2CC2)CC1", "note": "(as salt: hydrochloride) [Compound (B), 1-cyclopropyl-6-fluoro-1,4-dihydro-4-oxo-7-(1-(4-methyl)piperazinyl)-quinoline]", "values": [{"measurement": "melting point", "result": "238 to 240", "unit": "°C"}]}
{"smiles": "CN1CCN(c2cc3c(cc2F)c(=O)ccn3C2CC2)CC1", "note": "[Compound (B), 1-cyclopropyl-6-fluoro-1,4-dihydro-4-oxo-7-(1-(4-methyl)piperazinyl)-quinoline]", "values": [{"measurement": "antibacterial effect towards gram-positive and gram-negative organisms", "setting": "[1]", "result": "better antibacterial effect"}]}
{"smiles": "O=c1ccn(C2CC2)c2cc(N3CCNCC3)c(F)cc12", "note": "[Compound (A) HCl salt, 1-cyclopropyl-6-fluoro-1,4-dihydro-4-oxo-7(1-piperazinyl)-quinoline]", "values": [{"measurement": "LD50", "setting": "LD50 on mice", "result": 28, "unit": "mg/kg"}, {"measurement": "MIC", "setting": "E. coli", "result": 0.01, "unit": "µg/mL"}, {"measurement": "antibacterial effect towards gram-positive and gram-negative organisms", "setting": "[1]", "result": "better antibacterial effect"}, {"measurement": "MIC", "setting": "Staphylococcus aureus", "result": 0.06, "unit": "µg/mL"}, {"measurement": "effective maintenance dose necessary to control bacterial re-growth (MIC), Pseudomones aeruginose", "setting": "Pseudomones aeruginose", "result": 0.05, "unit": "µg/mL"}, {"measurement": "MIC", "setting": "St. aureus", "result": 0.08, "unit": "µg/mL"}, {"measurement": "sensitivity and effectiveness as antibacterial agent", "setting": "bacteria; compared with ciprofloxacin hydrochloride", "result": "more sensitive and effective"}, {"measurement": "bacterial growth after further incubation of the positive samples", "setting": "bacteria; incubation up to 16 hours, dose of 0.0 μg/ml printed for compound (A)", "result": "very slow bacterial growth"}]}
